# Measurements taken from patent US12404283B2, “c-MYC mRNA translation modulators and uses thereof in the treatment of cancer” (Anima Biotech Inc., priority 2022, dated 2025).
# Counter-ions that a name gives are not always drawn.
# System: c-Myc
# Assay: c-Myc immunofluorescence assay
# Assay type: cell-based, human
# Conditions: A549 cells, 24 hours treatment, anti-c-Myc immunofluorescence
# Summary of the method: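 High-content imaging (20×) of PFA-fixed A549 cells immunostained for c-Myc with DAPI nuclei, after 24 h compound treatment at increasing concentrations. Per-cell c-Myc signal in identified cell regions was plotted against dose and fitted by logistic regression to give EC50.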
row,SMILES,Myc Efficacy (−LogEC50)
1,"CCN(CC)CCCNC(=O)c1ccc2c(c1)sc1nc(-c3ccc(C(C)C)cc3)cn12 [compound 136, N-(3-(diethylamino)propyl)-2-(4-isopropylphenyl)benzo[d] imidazo[2,1-b]thiazole-7-carboxamide formate]",++ (++ ≥5 and <6)
2,"Cc1cccc(-c2cn3c(n2)sc2cc(C(=O)NCCCN4CCC(F)CC4)ccc23)c1 [compound 137, N-(3-(4-fluoropiperidin-1-yl)propyl)-2-(m-tolyl)benzo[d]imidazo[2,1-b]thiazole-7-carboxamide]",++ (++ ≥5 and <6)
3,"Cc1cccc(-c2cn3c(n2)sc2cc(C(=O)N[C@H]4C[C@@H](N5CCCCC5)C4)ccc23)c1 [compound 138, N-((1s,3s)-3-(piperidin-1-yl)cyclobutyl)-2-(m-tolyl)benzo[d]imidazo[2,1-b]thiazole-7-carboxamide]",++ (++ ≥5 and <6)
4,"Cc1cccc(-c2cn3c(n2)sc2cc(C(=O)NCCCC4CCOCC4)ccc23)c1 [compound 139, N-(3-(tetrahydro-2H-pyran-4-yl)propyl)-2-(m-tolyl)benzo[d]imidazo[2,1-b]thiazole-7-carboxamide]",+ (+ >3 and <5)
5,"Cc1cccc(-c2cn3c(n2)sc2cc(C(=O)NC4CCNCC4)ccc23)c1 [compound 140, N-(piperidin-4-yl)-2-(m-tolyl)benzo[d]imidazo[2,1-b]thiazole-7-carboxamide]",++ (++ ≥5 and <6)
6,"Cc1cccc(-c2cn3c(n2)sc2cc(C(=O)N4CCNCC4)ccc23)c1 [compound 141, piperazin-1-yl(2-(m-tolyl)benzo[d]imidazo[2,1-b]thiazol-7-yl)methanone]",+ (+ >3 and <5)
7,"CCN(CC)CCCNC(=O)c1ccc2c(c1)sc1nc(-c3ccc(OC)cc3)cn12 [compound 142, N-(3-(diethylamino)propyl)-2-(4-methoxyphenyl)benzo[d] imidazo[2,1-b]thiazole-7-carboxamide]",++ (++ ≥5 and <6)
8,"CCN(CC)CCCNC(=O)c1ccc2c(c1)sc1nc(-c3cccc(C)c3F)cn12 [compound 143, N-(3-(diethylamino)propyl)-2-(2-fluoro-3-methylphenyl)benzo[d] imidazo[2,1-b]thiazole-7-carboxamide]",++ (++ ≥5 and <6)
9,"CCN(CC)CCCNC(=O)c1ccc2c(c1)sc1nc(-c3cc(C)ccc3F)cn12 [compound 144, N-(3-(diethylamino)propyl)-2-(2-fluoro-5-methylphenyl)benzo[d] imidazo[2,1-b]thiazole-7-carboxamide]",+ (+ >3 and <5)
10,"CCN(CC)CCCNC(=O)c1ccc2c(c1)sc1nc(-c3cccc(C#N)c3)cn12 [compound 145, 2-(3-cyanophenyl)-N-(3-(diethylamino)propyl)benzo [d]imidazo[2,1-b]thiazole-7-carboxamide]",++ (++ ≥5 and <6)
11,"Cc1cccc(-c2cn3c(n2)sc2cc(C(=O)NCCCN4CCCC4)ccc23)c1 [compound 149, N-(3-(pyrrolidin-1-yl)propyl)-2-(m-tolyl)benzo[d]imidazo[2,1-b]thiazole-7-carboxamide]",++ (++ ≥5 and <6)
12,"Cc1cccc(-c2cn3c(n2)sc2cc(C(=O)NCCCN4CCCC4=O)ccc23)c1 [compound 150, N-(3-(2-oxopyrrolidin-1-yl)propyl)-2-(m-tolyl)benzo[d]imidazo[2,1-b]thiazole-7-carboxamide]",+ (+ >3 and <5)
13,"Cc1cccc(-c2cn3c(n2)sc2cc(C(=O)N[C@H]4C[C@H](N5CCCCC5)C4)ccc23)c1 [compound 151, N-((1r,3r)-3-(piperidin-1-yl)cyclobutyl)-2-(m-tolyl)benzo[d]imidazo[2,1-b]thiazole-7-carboxamide]",+ (+ >3 and <5)
14,"CCN(CC)CCCNC(=O)c1ccc2c(c1)sc1nc(-c3cccc(OC)c3)cn12 [compound 152, N-(3-(diethylamino)propyl)-2-(3-methoxyphenyl)benzo[d] imidazo[2,1-b]thiazole-7-carboxamide]",++ (++ ≥5 and <6)
15,"CCN(CC)CCCNC(=O)c1ccc2c(c1)sc1nc(-c3cccc(-c4ccccc4)c3)cn12 [compound 153, 2-([1,1′-biphenyl]-3-yl)-N-(3-(diethylamino)propyl)benzo [d]imidazo[2,1-b]thiazole-7-carboxamide]",+ (+ >3 and <5)
16,"CCN(CC)CCCNC(=O)c1ccc2c(c1)sc1nc(-c3ccc(C(=O)N(C)C)cc3)cn12 [compound 154, N-(3-(diethylamino)propyl)-2-(4-(dimethylcarbamoyl)phenyl) benzo[d]imidazo[2,1-b]thiazole-7-carboxamide formate]",+ (+ >3 and <5)
17,CCNCCCNC(=O)c1ccc2c(c1)sc1nc(-c3cccc(C)c3)cn12 [compound 155],++ (++ ≥5 and <6)

row,SMILES,Myc Efficacy (−LogEC50)
1,"Cc1cccc(-c2cn3c(n2)sc2cc(C(=O)NCCC4CCCN4)ccc23)c1 (stereo not drawn) [compound 156, N-(2-(pyrrolidin-2-yl)ethyl)-2-(m-tolyl)benzo[d]imidazo[2,1-b]thiazole-7-carboxamide]",++ (++ ≥5 and <6)
2,"CN[C@H]1C[C@@H](NC(=O)c2ccc3c(c2)sc2nc(-c4cccc(C)c4)cn23)C1 [compound 157, N-((1s,3s)-3-(methylamino)cyclobutyl)-2-(m-tolyl)benzo[d]imidazo[2,1-b]thiazole-7-carboxamide formate]",++ (++ ≥5 and <6)
3,"CN[C@H]1C[C@H](NC(=O)c2ccc3c(c2)sc2nc(-c4cccc(C)c4)cn23)C1 [compound 158, N-((1r,3r)-3-(methylamino)cyclobutyl)-2-(m-tolyl)benzo[d]imidazo[2,1-b]thiazole-7-carboxamide formate]",++ (++ ≥5 and <6)
4,"Cc1cccc(-c2cn3c(n2)sc2cc(C(=O)NCCC(=O)N4CCCC4)ccc23)c1 [compound 159, N-(3-oxo-3-(pyrrolidin-1-yl)propyl)-2-(m-tolyl)benzo[d]imidazo[2,1-b]thiazole-7-carboxamide]",+ (+ >3 and <5)
5,"CCN(CC)CCCNC(=O)c1ccc2c(c1)sc1nc(-c3ccc(C#N)cc3)cn12 [compound 160, 2-(4-cyanophenyl)-N-(3-(diethylamino)propyl)benzo [d]imidazo[2,1-b]thiazole-7-carboxamide]",+ (+ >3 and <5)
6,"CCN(CC)CCCNC(=O)c1ccc2c(c1)sc1nc(-c3ccncc3)cn12 [compound 161, N-(3-(diethylamino)propyl)-2-(pyridin-4-yl)benzo[d]imidazo[2,1-b]thiazole-7-carboxamide]",+++ (+++ ≥6)
7,"CCN(CC)CCCNC(=O)c1ccc2c(c1)sc1nc(N3CCOCC3)cn12 [compound 162, N-(3-(diethylamino)propyl)-2-morpholinobenzo[d]imidazo [2,1-b]thiazole-7-carboxamide]",− (− ≤3)
8,"CCN(CC)CCCNC(=O)c1ccc2c(c1)sc1nc(-c3ccc(CN)cc3)cn12 [compound 163, 2-(4-(aminomethyl)phenyl)-N-(3-(diethylamino)propyl)benzo [d]imidazo[2,1-b]thiazole-7-carboxamide]",+++ (+++ ≥6)
9,"CCN(CC)CCCNC(=O)c1ccc2c(c1)sc1nc(-c3ccc(NC)cc3)cn12 [compound 164, N-(3-(diethylamino)propyl)-2-(4-(methylamino)phenyl)benzo [d]imidazo[2,1-b]thiazole-7-carboxamide]",+++ (+++ ≥6)
10,"CCN(CC)CCCNC(=O)c1ccc2c(c1)sc1nc(-c3cncc(C)c3)cn12 [compound 165, N-(3-(diethylamino)propyl)-2-(5-methylpyridin-3-yl)benzo[d]imidazo[2,1-b]thiazole-7-carboxamide]",+ (+ >3 and <5)
11,"CCN(CC)CCCNC(=O)c1ccc2c(c1)sc1nc(-c3ccc(C(=O)NC)cc3F)cn12 [compound 166, N-(3-(diethylamino)propyl)-2-(2-fluoro-4-(methylcarbamoyl)phenyl) benzo[d]imidazo[2,1-b]thiazole-7-carboxamide]",+++ (+++ ≥6)
12,"CCN(CC)CCCNC(=O)c1ccc2c(c1)sc1nc(-c3cccc(C(=O)NC)c3)cn12 [compound 167, N-(3-(diethylamino)propyl)-2-(3-(methylcarbamoyl)phenyl) benzo[d]imidazo[2,1-b]thiazole-7-carboxamide]",+ (+ >3 and <5)
13,"Cc1cccc(-c2cn3c(n2)sc2cc(NC(=O)C4CCNCC4)ccc23)c1 [compound 168, N-(2-(m-tolyl)benzo[d]imidazo[2,1-b]thiazol-7-yl)piperidine-4-carboxamide]",++ (++ ≥5 and <6)
14,"CCN(CC)CCCNC(=O)c1ccc2c(c1)sc1nc(-c3cccc(C(C)C)c3)cn12 [compound 169, N-(3-(diethylamino)propyl)-2-(3-isopropylphenyl)benzo[d] imidazo[2,1-b]thiazole-7-carboxamide]",++ (++ ≥5 and <6)
15,"CCN(CC)CCCNC(=O)c1ccc2c(c1)sc1nc(-c3cccc(N4CCOCC4)c3)cn12 [compound 170, N-(3-(diethylamino)propyl)-2-(3-morpholinophenyl)benzo[d] imidazo[2,1-b]thiazole-7-carboxamide]",++ (++ ≥5 and <6)
16,"CCN(CC)CCCNC(=O)c1ccc2c(c1)sc1nc(-c3cccc(N4CCCC4)c3)cn12 [compound 171, N-(3-(diethylamino)propyl)-2-(3-(pyrrolidin-1-yl)phenyl)benzo[d]imidazo [2,1-b]thiazole-7-carboxamide]",++ (++ ≥5 and <6)
